Patent US7402548B2, “Benzoxazole compounds, process for producing the same and herbicides” (Kyoyu Agri Co., Ltd., priority 2000, dated 2008)

What was measured:
blackgrass [1] = experiment: Soil treatment test for upland field; assay type: in vivo, Alopecurus aegualis; parameters: key: 0 = normal development, 5 = all killed; conditions: 500 g/ha, 3 weeks, glass house 25° C.
Protocol: (§1) The herbicidal effects are evaluated according to the following 6 ranks as compared with non-treated district. (0: normal development, 1: Less damaged, 2: Slightly damaged, 3: Moderately damaged, 4: Severely damaged, 5: All killed). Incidentally, “-” in the column means not investigated.
(§2) Wagner pots, each having an area of 1/5000 are, were packed with Ube soil (alluvial soil), and then each seed of corn, soybean, cotton, wheat, solgum, sugar beat, Large crabgrass, barnyard grass, green foxtail, blackgrass, annual bluegrass, common lambsquarters, livid amaranth, velvetleaf, morning glory, common Cocklebur (Xanthium strumarium) and sicklepod (Cassia obtusifolia) were planted and covered with soil.
(§3) Each wettable powder of the desired compounds (I) shown in Tables 1 to 21, 24, 25, 28 and 29 prepared in accordance with Example 2 was diluted with water containing a surfactant (0.05%) and uniformly sprayed on the surface of each soil so that an effective concentration of the compound (I) in each herbicide became 500 g/ha.
(§4) These plants were controlled in a glass house at an average temperature of 25° C. for 3 weeks, and then herbicidal effects thereof were investigated.
(§5) The herbicidal effects were evaluated according to the evaluation method described in the above (1).

morning glory [2] = experiment: Soil treatment test for upland field; assay type: in vivo, Ipomoea spps.; parameters: key: 0 = normal development, 5 = all killed; conditions: 500 g/ha, 3 weeks, glass house 25° C.
Protocol: as §1, §2, §3, §4, §5

Large crabgrass [3] = experiment: Soil treatment test for upland field; assay type: in vivo, Digitaria adscendens; parameters: key: 0 = normal development, 5 = all killed; conditions: 500 g/ha, 3 weeks, glass house 25° C.
Protocol: as §1, §2, §3, §4, §5

green foxtail [4] = experiment: Foliar spread test for upland field; assay type: in vivo, Setaria viridis; parameters: key: 0 = normal development, 5 = all killed (6 ranks vs. untreated); conditions: foliar spray, 500 ppm, 3 weeks, glass house 25° C.
Protocol: as §1
(§6) Wagner pots, each having an area of 1/5000 are, were packed with volcanic ash soil and then each seed of corn, soybean, cotton, wheat, solgum, sugar beat, Large crabgrass, barnyardgrjass, green foxtail, blackgrass, annual bluegrass, common lambsquarters, livid amaranth, velvetleaf, morning glory, Xanthium pensylvanicum and Cassia obtusifolia was planted, covered with soil and grown in a glass house at an average temperature of 25° C. for about 2 weeks.
(§7) Each wettable powder of the desired compounds (I) shown in Tables 1 to 21, 24, 25, 28 and 29 prepared in accordance with Example 2 was diluted to 500 ppm with water containing a surfactant (0.5%) and then uniformly sprayed on the above respective plants.
(§8) After these plants were controlled in a glass house at an average temperature of 25° C. for 3 weeks, the herbicidal effects thereof were investigated.
as §5

blackgrass [5] = experiment: Foliar spread test for upland field; assay type: in vivo, Alopecurus aegualis; parameters: key: 0 = normal development, 5 = all killed (6 ranks vs. untreated); conditions: foliar spray, 500 ppm, 3 weeks, glass house 25° C.
Protocol: as §1, §6, §7, §8, §5

green foxtail [6] = experiment: Soil treatment test for upland field; assay type: in vivo, Setaria viridis; parameters: key: 0 = normal development, 5 = all killed; conditions: 500 g/ha, 3 weeks, glass house 25° C.
Protocol: as §1, §2, §3, §4, §5

Large crabgrass [7] = experiment: Foliar spread test for upland field; assay type: in vivo, Digitaria adscendens; parameters: key: 0 = normal development, 5 = all killed (6 ranks vs. untreated); conditions: foliar spray, 500 ppm, 3 weeks, glass house 25° C.
Protocol: as §1, §6, §7, §8, §5

livid amaranth [8] = experiment: Foliar spread test for upland field; assay type: in vivo, Amaranthus lividus; parameters: key: 0 = normal development, 5 = all killed (6 ranks vs. untreated); conditions: foliar spray, 500 ppm, 3 weeks, glass house 25° C.
Protocol: as §1, §6, §7, §8, §5

common lambsquarters [9] = experiment: Foliar spread test for upland field; assay type: in vivo, Chenopodium album; parameters: key: 0 = normal development, 5 = all killed (6 ranks vs. untreated); conditions: foliar spray, 500 ppm, 3 weeks, glass house 25° C.
Protocol: as §1, §6, §7, §8, §5

velvetleaf [10] = experiment: Soil treatment test for upland field; assay type: in vivo, Abutilon theophrasti; parameters: key: 0 = normal development, 5 = all killed; conditions: 500 g/ha, 3 weeks, glass house 25° C.
Protocol: as §1, §2, §3, §4, §5

velvetleaf [11] = experiment: Foliar spread test for upland field; assay type: in vivo, Abutilon theophrasti; parameters: key: 0 = normal development, 5 = all killed (6 ranks vs. untreated); conditions: foliar spray, 500 ppm, 3 weeks, glass house 25° C.
Protocol: as §1, §6, §7, §8, §5

annual bluegrass [12] = experiment: Foliar spread test for upland field; assay type: in vivo, Poa annua; parameters: key: 0 = normal development, 5 = all killed (6 ranks vs. untreated); conditions: foliar spray, 500 ppm, 3 weeks, glass house 25° C.
Protocol: as §1, §6, §7, §8, §5

barnyardgrjass = experiment: Foliar spread test for upland field; assay type: in vivo, Eschinochloa crusgalli; parameters: key: 0 = normal development, 5 = all killed (6 ranks vs. untreated); conditions: foliar spray, 500 ppm, 3 weeks, glass house 25° C.
Protocol: as §1, §6, §7, §8, §5

sugar beat [13] = experiment: Soil treatment test for upland field; assay type: in vivo; parameters: key: 0 = normal development, 5 = all killed; conditions: 500 g/ha, 3 weeks, glass house 25° C.
Protocol: as §1, §2, §3, §4, §5

corn [14] = experiment: Soil treatment test for upland field; assay type: in vivo; parameters: key: 0 = normal development, 5 = all killed; conditions: 500 g/ha, 3 weeks, glass house 25° C.
Protocol: as §1, §2, §3, §4, §5

solgum [15] = experiment: Soil treatment test for upland field; assay type: in vivo; parameters: key: 0 = normal development, 5 = all killed; conditions: 500 g/ha, 3 weeks, glass house 25° C.
Protocol: as §1, §2, §3, §4, §5

wheat [16] = experiment: Soil treatment test for upland field; assay type: in vivo; parameters: key: 0 = normal development, 5 = all killed; conditions: 500 g/ha, 3 weeks, glass house 25° C.
Protocol: as §1, §2, §3, §4, §5

soybean [17] = experiment: Soil treatment test for upland field; assay type: in vivo; parameters: key: 0 = normal development, 5 = all killed; conditions: 500 g/ha, 3 weeks, glass house 25° C.
Protocol: as §1, §2, §3, §4, §5

common lambsquarters [18] = experiment: Soil treatment test for upland field; assay type: in vivo, Chenopodium album; parameters: key: 0 = normal development, 5 = all killed; conditions: 500 g/ha, 3 weeks, glass house 25° C.
Protocol: as §1, §2, §3, §4, §5

morning glory [19] = experiment: Foliar spread test for upland field; assay type: in vivo, Ipomoea spps.; parameters: key: 0 = normal development, 5 = all killed (6 ranks vs. untreated); conditions: foliar spray, 500 ppm, 3 weeks, glass house 25° C.
Protocol: as §1, §6, §7, §8, §5

annual bluegrass [20] = experiment: Soil treatment test for upland field; assay type: in vivo, Poa annua; parameters: key: 0 = normal development, 5 = all killed; conditions: 500 g/ha, 3 weeks, glass house 25° C.
Protocol: as §1, §2, §3, §4, §5

sugar beat [21] = experiment: Foliar spread test for upland field; assay type: in vivo; parameters: key: 0 = normal development, 5 = all killed (6 ranks vs. untreated); conditions: foliar spray, 500 ppm, 3 weeks, glass house 25° C.
Protocol: as §1, §6, §7, §8, §5

corn [22] = experiment: Foliar spread test for upland field; assay type: in vivo; parameters: key: 0 = normal development, 5 = all killed (6 ranks vs. untreated); conditions: foliar spray, 500 ppm, 3 weeks, glass house 25° C.
Protocol: as §1, §6, §7, §8, §5

solgum [23] = experiment: Foliar spread test for upland field; assay type: in vivo; parameters: key: 0 = normal development, 5 = all killed (6 ranks vs. untreated); conditions: foliar spray, 500 ppm, 3 weeks, glass house 25° C.
Protocol: as §1, §6, §7, §8, §5

cotton = experiment: Foliar spread test for upland field; assay type: in vivo; parameters: key: 0 = normal development, 5 = all killed (6 ranks vs. untreated); conditions: foliar spray, 500 ppm, 3 weeks, glass house 25° C.
Protocol: as §1, §6, §7, §8, §5

wheat [24] = experiment: Foliar spread test for upland field; assay type: in vivo; parameters: key: 0 = normal development, 5 = all killed (6 ranks vs. untreated); conditions: foliar spray, 500 ppm, 3 weeks, glass house 25° C.
Protocol: as §1, §6, §7, §8, §5

soybean [25] = experiment: Foliar spread test for upland field; assay type: in vivo; parameters: key: 0 = normal development, 5 = all killed (6 ranks vs. untreated); conditions: foliar spray, 500 ppm, 3 weeks, glass house 25° C.
Protocol: as §1, §6, §7, §8, §5

barnyard grass = experiment: Soil treatment test for upland field; assay type: in vivo, Eschinochloa crusgalli; parameters: key: 0 = normal development, 5 = all killed; conditions: 500 g/ha, 3 weeks, glass house 25° C.
Protocol: as §1, §2, §3, §4, §5

livid amaranth [26] = experiment: Soil treatment test for upland field; assay type: in vivo, Amaranthus lividus; parameters: key: 0 = normal development, 5 = all killed; conditions: 500 g/ha, 3 weeks, glass house 25° C.
Protocol: as §1, §2, §3, §4, §5

| SMILES | Effects Blackgrass (blackgrass [1]) | Effects Morning glory (morning glory [2]) | Effects Large crabgrass (Large crabgrass [3]) | Effects Green foxtail (green foxtail [4]) | Effects Blackgrass (blackgrass [5]) | Effects Green foxtail (green foxtail [6]) | Effects Large crabgrass (Large crabgrass [7]) | Effects Livid amaranth (livid amaranth [8]) | Effects Common lambsquarters (common lambsquarters [9]) | Effects Velvetleaf (velvetleaf [10]) | Effects Velvetleaf (velvetleaf [11]) | Effects Annual bluegrass (annual bluegrass [12]) | Effects Barnyardgrass (barnyardgrjass) | Effects Sugar beat (sugar beat [13]) | Effects Corn (corn [14]) | Effects Solgum (solgum [15]) | Effects Wheat (wheat [16]) | Effects Soybean (soybean [17]) | Effects Common lambsquarters (common lambsquarters [18]) | Effects Morning glory (morning glory [19]) | also measured |
| --- | --- | --- | --- | --- | --- | --- | --- | --- | --- | --- | --- | --- | --- | --- | --- | --- | --- | --- | --- | --- | --- |
| CCC(=Cc1cccc(C(F)(F)F)c1)c1nc2cc([N+](=O)[O-])ccc2o1 [I-c-72] | 5 | 4 | 5 | 4 | 3 | 5 | 4 | 5 | 5 | 5 | 3 | 4 | 3 | 5 | 2 | 3 | 2 | 5 | 5 | 5 | Effects Annual bluegrass (annual bluegrass [20]): 5; Effects Sugar beat (sugar beat [21]): 4; Effects Corn (corn [22]): 3; Effects Solgum (solgum [23]): 3; Effects Sotton (cotton): 4; Effects Wheat (wheat [24]): 2; Effects Soybean (soybean [25]): 5; Effects Barnyardgrass (barnyard grass): 5; Effects Livid amaranth (livid amaranth [26]): 5 |
| CCCC(=Cc1cccc(C(F)(F)F)c1)c1nc2cc(C(F)(F)F)ccc2o1 [I-c-88] | 5 | 5 | 5 | 5 | 5 | 5 | 4 | 5 | 5 | 5 | 4 | 4 | 2 | 5 | 3 | 4 | 2 | 5 | 5 | 5 | Effects Annual bluegrass (annual bluegrass [20]): 5; Effects Sugar beat (sugar beat [21]): 5; Effects Corn (corn [22]): 4; Effects Solgum (solgum [23]): 3; Effects Sotton (cotton): 5; Effects Wheat (wheat [24]): 2; Effects Soybean (soybean [25]): 5; Effects Barnyardgrass (barnyard grass): 5; Effects Livid amaranth (livid amaranth [26]): 5 |
